The numbers were not newly measured in patent US12343320B2, “Intraveneous dofetilide to reduce the risk of developing AF/AFL post coronary bypass surgery” (Hyloris Developments SA, priority 2023, dated 2025), which cites them from elsewhere.

The conditions of series [1]: IV dose of 1.5 μg/kg, restated rounded.
Series [2] relates to QTc interval. The settings on record: average slope; Sedgwick et al 1991.

Turning to `CN(CCOc1ccc(NS(C)(=O)=O)cc1)CCc1ccc(NS(C)(=O)=O)cc1` [dofetilide, Dofetilide], the peak level in series [1] is recorded as 1.7 ng/mL. Moreover, the “QTc change per dofetilide plasma concentration, average” value in series [2] was 20 ms.
